Experimental data from patent US20170290820A1, “METHODS AND COMPOSITIONS FOR TREATING BETA-THALASSEMIA AND SICKLE CELL DISEASE” (Academia Sinica, priority 2013, published 2017).

How the values were obtained:
[1] = test system: γ globin gene; assay: γ globin gene induction by relative quantitative RT-PCR; format: cell-based, human; details: for γ globin induction (IC50): Table 3, γ globin mRNA induction fold at the compound's IC50, 3 days
Description: (§1) After 3 days of drug-treatment, the total RNA was extracted by RNA Spin mini kit (Ge-Healthcare) and reverse-transcription was performed by using superscript II (Invitrogen) followed the manufactors instruction. Quantitative PCR was performed on LightCycler with using STBR green master mix followed the manufactors instruction (Roche). The absolute quantitative RT-PCR was calculated by the standard curve with supplying a known copy number of plasmids. The relative quantitative RT-PCR was normalized to the expression levels of the β-actin and compared to the mock control.
To search for new agents, which are capable of inducing the expression of γ globin, a series of naphthalimide derivatives with various substituent(s) on the naphthalene ring and the heterocyclic N-atom (A1-A14, B1-B4, C1-C5, D1, and E1-E3, FIG. 2) were synthesized. These derivatives were subjected to evaluating the γ globin induction abilities in differentiated peripheral blood mononuclear cells (PBMCs). The PBMCs isolated from the peripheral blood of donors were expanded and differentiated for a total of 14 days in a two-phase liquid culture. The resulted primary erythoid cells were then treated with different dosages of naphthalimide derivatives individually for another 3 days. The expression levels of the endogenous γ globin gene were estimated by relative quantitative RT-PCR and the proliferation rates of these cells were examined by AlamarBlue cell viability assay. […]; 2-4.5-folds induction of the γ globin gene expression in the compounds-treated cells (FIG. 3).

[2] = test system: NF-E4; assay: NF-E4 mRNA level by relative quantitative RT-PCR; format: cell-based, human; details: FIG. 4A; at IC50, 3 days, relative to mock
Description: (§2) FIGS. 4A-4D are graphs showing the expression profiles of the γ globin gene and HbF-related regulators after compounds treatment in the primary human erthroid cells. […] Data are presented as the relative expression level in mean±SEM, N=8. […] Upper panel: For detection of the induction level of γ globin, fifty microgram of total cell lysate was analyzed by western blot analysis using antibody against γ globin, or β-actin. Lower panel: The signal intensity was quantified by an image-analyzing software. The intensity of γ globin expression levels of mock control was set as 1. Data are shown as the mean±SEM, N=5. […] Lower panel: The signal was quantified by an image-analyzing software. […] Total RNA was extracted, and the expression level of γ globin gene was analyzed by relative quantitative RT-PCR. […]
as §1, with “control. […]” for “control.”

[3] = solubility in DMSO and H2O; format: physicochemical; details: water; H2O; read-out: solubility H2O
[4] = test system: BCL11A; assay: BCL11A mRNA level by relative quantitative RT-PCR; format: cell-based, human; details: FIG. 4A; at IC50, 3 days, relative to mock
Description: as §2
as §1, with “control. […]” for “control.”

[5] = test system: BCL11A; assay: BCL11A protein by western blot; format: cell-based, human; details: FIG. 4C, at IC50, 3 days
Description: FIGS. 4A-4D are graphs showing the expression profiles of the γ globin gene and HbF-related regulators after compounds treatment in the primary human erthroid cells. […] Data are presented as the relative expression level in mean±SEM, N=8. […] Upper panel: For detection of the induction level of γ globin, fifty microgram of total cell lysate was analyzed by western blot analysis using antibody against γ globin, or β-actin. Lower panel: The signal intensity was quantified by an image-analyzing software. The intensity of γ globin expression levels of mock control was set as 1. Data are shown as the mean±SEM, N=5. […] Upper panel: For detection of the expression level of BCL11A, thirty microgram of total protein was separated by SDS-PAGE electrophoresis, transferred to PVDF membrane, and immunobloted with antibody against BCL11A and β-actin. Lower panel: The signal was quantified by an image-analyzing software. The intensity of the mock control BCL11A levels were set as 1. Data are shown as the mean±SEM, N=5. FIG. 4D is a graph showing that the HU-nonresponding primary human erythroid cells were treated with HU (145.9 μM), NaB (221.6 μM), S51021 (21.8 μM) or SS-2394 (2.3 μM) for 3 days. Total RNA was extracted, and the expression level of γ globin gene was analyzed by relative quantitative RT-PCR. Data are shown as the mean±SEM, N=3. […]

Row | Structure (SMILES) | γ globin induction (IC50) [1] [fold] | EC (μM) induction of HU IC50 (2.3 fold) ([1]; concentration inducing γ globin gene expression 2.3-fold, primary human erythroid cells) [µM] | expression level of NF-E4 [2] [folds] | solubility [3] [mM] | expression level of BCL11A mRNA [4] [folds] | expression level of γ globin mRNA ([1]; FIG. 4A, at IC50, 3 days, relative to mock) | BCL11A protein [5]
1 | NC(=O)NO [HU, hydroxyurea] | 2.3 | 145.9 | 0.6 | > 100 |  |  | 
2 | CCCC(=O)[O-].[Na+] [NaB, sodium butyrate] | 1.3 |  | 0.6 |  | 0.6 | not | significant reduction
